Measurements: patent publication US5620985A, “Antimitotic binary alkaloid derivatives from catharanthus roseus” (Pierre Fabre Medicament, priority 1993, dated 1997)

What was measured:
T24 = assay: MTT cytotoxicity test, T24 (growth inhibition); type: cell-based; conditions: Homo sapiens, T-24; 1 μg/ml; T24 (bladder); relative to the controls; read-out: Percentage inhibition of growth T24
Experimental: (§1) Thus, the cytotoxic activity of the products was evaluated using the MTT test [T. Mosman, J. Immunol. […] The amount of formazan formed (and consequently the intensity of the color obtained) is directly proportional to the number of living cells present in the culture medium at the time of the test. The lines used are of human origin, and are marketed by the American Type Cell Collection (ATCC), the reference body for the supply of standardized strains.
(§2) The experimental procedure used is essentially that described by C.
(§3) The results are expressed in the form of a percentage inhibition of growth relative to the controls.

MXT adenocarcinoma = assay: in vivo test on MXT adenocarcinoma grafted in B6D2F1 mice; conditions: for activity on the MXT model: in words, MXT adenocarcinoma model
Description: The antitumor properties of the products of the invention were confirmed by in vivo tests, in particular on the model of mammalian MXT adenocarcinoma,which is a solid tumor that is particularly insensitive to anticancer agents [C. S. Watson, D. Medina, J. H. Clark, Cancer Res., 37, 3344 (1977); W. T. Bradher and C. A. Claridge, "Antineoplastic Agents", Wiley-Interscience (1984); T. W. Redding and A. V. Schally, Proc. Natl. Acad. Sci. U.S.A., 80, 1459 (1983)].
In this model, mice of type B6D2F1 are grafted by injection (subcutaneous) of a tumor fragment of about 10 mm^3 originating from an MXT tumor. The test products are administered via the i.p. route starting from the 17th day after the graft.

MCF-7 = assay: MTT cytotoxicity test, MCF-7 (growth inhibition); type: cell-based; conditions: Homo sapiens, MCF7; 1 μg/ml; MCF-7 (breast); relative to the controls; read-out: Percentage inhibition of growth MCF-7
Experimental: as §1, §2, §3

tubulin = assay: inhibition of polymerization of tubulin into microtubules (Weisenberg); type: biochemical; conditions: variations in optical density; read-out: IC50 (concentration which causes 50% inhibition of the polymerization)
Description: This property was confirmed by measuring the inhibition of polymerization of tubulin into microtubules in the presence of the compounds of the invention, according to the method described by R. C. Weisenberg (Science 177, 1196-7, 1972). The results are expressed as a concentration of product which causes 50% inhibition of the polymerization. This phenomenon is readily monitored and quantified via the variations in optical density.

T47D = assay: MTT cytotoxicity test, T47D (growth inhibition); type: cell-based; conditions: Homo sapiens; 1 μg/ml; T47D (breast); relative to the controls; read-out: Percentage inhibition of growth T47
Experimental: as §1, §2, §3

J82 = assay: MTT cytotoxicity test, J82 (growth inhibition); type: cell-based; conditions: Homo sapiens; 1 μg/ml; J82 (bladder); relative to the controls; read-out: Percentage inhibition of growth J82
Experimental: as §1, §2, §3

SMILES | inhibition at 1 µg/mL (T24) [%] | reduction in tumor size relative to the untreated controls (MXT adenocarcinoma; 9×40 mg/kg, i.p., starting from the 17th day after the graft) [%] | inhibition at 1 µg/mL (MCF-7) [%] | IC50 (tubulin) [µM] | inhibition at 1 µg/mL (T47D) [%] | inhibition at 1 µg/mL (J82) [%] | activity on the MXT model (MXT adenocarcinoma)
CC[C@]12C=CCN3CC[C@@]4(c5cc([C@@]6(C(=O)OC)C[C@@H]7CC(C(C)(F)F)CN(Cc8c6[nH]c6ccccc86)C7)c(OC)cc5N(C)[C@H]4[C@@](O)(C(=O)OC)[C@@H]1OC(C)=O)[C@@H]32 (stereo partly drawn) [Example 1, 19',19'-difluoro 15',20'-dihydrovinorelbine] | 70 | 40 | 68 | 2.5 | 44 | 45 | 
CC[C@]12C=CCN3CC[C@@]4(c5cc([C@@]6(C(=O)OC)C[C@@H]7CC(C(C)(F)F)CN(CCc8c6[nH]c6ccccc86)C7)c(OC)cc5N(C)[C@H]4[C@@](O)(C(=O)OC)[C@@H]1OC(C)=O)[C@@H]32 (stereo partly drawn) [Example 5, 20'-deoxy 19',19'-difluorovinblastine] | 50 |  | 36 | 8.9 | 27 | 15 | 
CC[C@]12C=CCN3CC[C@@]4(c5cc([C@@]6(C(=O)OC)C[C@@H]7CC(C(C)(F)F)CN(Cc8c6[nH]c6ccccc86)C7)c(OC)cc5N(C)[C@H]4[C@@](O)(C(=O)OC)[C@@H]1O)[C@@H]32 (stereo partly drawn) [Example 11, 17-deacetyl 19',19'-difluoro 15',20'-dihydrovinorelbine] | 51 |  | 45 | 2.9 | 30 | 60 | 
CC[C@]12C=CCN3CC[C@@]4(c5cc([C@@]6(C(=O)OC)C[C@@H]7CC(C(C)(F)F)CN(CCc8c6[nH]c6ccccc86)C7)c(OC)cc5N(C)[C@H]4[C@@](O)(C(=O)OC)[C@@H]1O)[C@@H]32 (stereo partly drawn) [Example 12, 17-deacetyl 20'-deoxy 19',19'-difluorovinblastine] | 72 |  | 36 | 4.2 | 27 | 0 | 
CC[C@]1(O)C[C@@H]2CN(CCc3c([nH]c4ccccc34)[C@@](C(=O)OC)(c3cc4c(cc3OC)N(C)[C@H]3[C@@](O)(C(=O)OC)[C@H](OC(C)=O)[C@]5(CC)C=CCN6CC[C@]43[C@@H]65)C2)C1 [VINBLASTINE, vinblastine, reference compound] |  |  |  | […] |  |  | devoid of activity
CCC1=C[C@@H]2CN(C1)Cc1c([nH]c3ccccc13)[C@@](C(=O)OC)(c1cc3c(cc1OC)N(C)[C@H]1[C@@](O)(C(=O)OC)[C@H](OC(C)=O)[C@]4(CC)C=CCN5CC[C@]31[C@@H]54)C2 [VINORELBINE, vinorelbine, reference compound] | 62 |  | 50 |  | 16 | 14 | devoid of activity
CC[C@]1(O)C[C@@H]2CN(CCc3c([nH]c4ccccc34)[C@@](C(=O)OC)(c3cc4c(cc3OC)N(C=O)[C@H]3[C@@](O)(C(=O)OC)[C@H](OC(C)=O)[C@]5(CC)C=CCN6CC[C@]43[C@@H]65)C2)C1 [vincristine] |  |  |  |  |  |  | devoid of activity
CC[C@]1(O)C[C@@H]2CN(CCc3c([nH]c4ccccc34)[C@@](C(=O)OC)(c3cc4c(cc3OC)N(C)[C@H]3[C@@](O)(C(N)=O)[C@H](O)[C@]5(CC)C=CCN6CC[C@]43[C@@H]65)C2)C1 [vindesine] |  |  |  |  |  |  | devoid of activity
